From patent US20140194506A1, “Use of Potassium Piperonyl Pentadienoate for Lowering Blood Lipid” (INNER MONGOLIA UNIVERSITY, priority 2011, published 2014)
Values joined by “and” are separate entries in the source; they are usually repeats but may differ in a detail not shown here. Equal values may be shown once.

Tests used:
[1] = tested on: high lipid mode white rats; assay: Therapeutic blood lipid lowering in hyperlipoidemia mode white rats (Example 3); format: in vivo, Wistar male white rats
Description: High lipid feed formula: cholesterol 3%, lard 10%, sodium cholate 0.5%, basal feed: 86.5% (formula: flour 17.14%, rice flour 8.57%, maize 17.14%, bran 21%, fish flour 1.71%, dairy salt 0.857%, vitamin 0.085%, bean material 17.14%).
72 Wistar white male rats of 170±10 g of body weight were divided into 6 groups randomly and numbered. Each group included 12 rats. The rats were fed with common standard feed under experimental conditions and observed for 7 days, and its blood was sampled from tail for testing serum total cholesterol (TC). […] From the 8th day, the group I was set as a blank group, and was fed with common standard feed. Other groups were fed with high lipid feed for 8 days in a row, and the blood was sampled from tail on the next day for testing TC. […] The rats then were divided into 5 groups randomly (see table 12) according to TC levels. Each group included 10 rats (10 rats who were unsuccessful blood lipid modes were discarded). The rats were ted with high lipid teed continuously. Group was a high lipid feed mode control group. Group III was a Simvastatin 10 mg/kg group. Group IV was a GB-O group. Group V was a GB-H group. Group VI was a GB-K group. The high lipid feed mode control group was fed with high lipid feed together with distilled water. Groups III, IV, V, and VI were fed with high lipid feed together with required simvastatin, GB-O, GB-H, and GB-K suspensions (formulated by grinding with 0.5% sodium carboxymethycellulose CMC-Na) respectively. The dosing amount was 0.046 mmol/kg, and the amount of high lipid feed was 20 g per day for each rat. The grouping and the dosing amount for each group can be found in table 13.
(§1) The body weights of white rats were determined and recorded every day. The rats for each group were dosed basing, on its body weight by feeding for 14 days at 22° C. of room temperature and 40-50% of relative humidity. On the 14th day, after fasting and freely receiving water for 16 hours, the blood was sampled from aorta, placed for 30 min to blood coagulate, centrifugated for 15 min at 3000 r/min to separate serum. The values of serum total cholesterol (TC), and triglyceride (TG) were determined on an automatic analyzer using enzymatic colorimetry, the value of high density lipoprotein cholesterol (HDL) was determined using a phosphotungstic acid-Mg precipitation method, and the value of low density lipoprotein cholesterol (LDL) was determined using a polyvinyl sulfate precipitation method.
All data were treated statistically, and are presented as means standard deviations (x±s). The significance of difference was judged by T test. The calculation of p value was obtained by comparing the high lipid mode group with the blank control group, and comparing other test drug groups with the high lipid mode group.
The reaction temperature was 37° C. The cholesterol ester in serum was first hydrolyzed into free cholesterol (FC) and fatty acid with cholesterol ester hydrolase (CEH.) Then, all FC in serum was oxidized into ch-4-en-3-one and H2O2) with cholesterol oxidase (COD). The resulting H2O2, was reacted with 4-aminoantipyrine (4-AAP) and 4-chlorophenol in the presence of peroxidase (POD) (Trinder reaction), to yield red quinine imine, which was colarimetrically tested at 500 nm wavelength.
The reaction temperature was 37° C. The triglyceride in serum was first hydrolyzed into glycerol and fatty acid with lipoprotein lipase (LPL). The resulting glycerol was reacted with ATP in the presence of glycerol kinase (GK), to produce glycerol-3-phosphate and ADP. The resulting glycerol-3-phosphate was oxidized into dihydroxyacetone phosphate and H2O2 with oxygen in the presence of glycerol phosphate oxidase (GPO). […]

[2] = tested on: high lipid mode white rats; assay: Prophylactic blood lipid lowering in high lipid feed white rats (Example 2); format: in vivo, Wistar male white rats
Description: High lipid feed formula: cholesterol 3%, lard 10%, sodium cholate 0.5%, basal feed: […] (formula: flour 17.14%, rice flour 8.57%, maize […], bran 21%, fish flour 1.71%, dairy salt 0.857%, vitamin 0.085%, bean material 17.14%).
60 Wistar White male rats of 150±10 g of body weight were fed with common standard feed for 5 days, and then divided into 6 groups randomly. Each group included 10 rats. Group I was a blank group, where the rats were fed with common standard feed. Group II was a high lipid feed mode control group. Group III was a Simvastatin 10 mg/kg group. Group IV was a GB-O group. Group V was a GB-H group. Group VI was a GB-K group. High lipid feed mode control group were fed with high lipid feed together with distilled water. Groups III, IV, V, and VI were fed with high lipid feed together with required simvastatin, GB-O, GB-H, and GB-K suspensions (formulated by grinding with 0.5% sodium […] CMC-Na) respectively. The dosing amount was 0.046 mmol/kg, and the amount of high lipid feed was 20 g per day for each rat. The grouping and the dosing amount for each group can be found in table 1.
as §1, with “The rats in each group” for “The rats for each group”, “were dosed basing on its” for “were dosed basing, on its”, “16 hours, its blood was” for “16 hours, the blood was”, “blood coagulate, and centrifugated for” for “blood coagulate, centrifugated for”, “determined using the polyvinyl sulfate” for “determined using a polyvinyl sulfate”
All data were treated statistically, and were presented as means±standard deviations (x±s). The significance of difference was judged by T test. The calculation of p value was obtained by comparing the high lipid mode group with the blank control group, and comparing other test drug groups with the high lipid mode group.
The reaction temperature was 37° C. The cholesterol ester in serum was first hydrolyzed into free cholesterol (FC) and fatty acid with cholesterol ester hydrolase (CEH). Then, all FC in serum was oxidized into ch-4-en-3-one and H2O2 with cholesterol oxidase (COD). The resulting H2O2 was reacted with 4-aminoantipyrine (4-AAP) and 4-chlorophenol in the presence of peroxidase (POD) (Trinder reaction), to yield red quinine imine, which was calorimetrically tested at a 500 nm wavelength.
The reaction temperature was 37° C. The triglyceride ire serum was first hydrolyzed into glycerol and fatty acid with lipoprotein lipase (LPL). The resulting glycerol was reacted with ATP in the presence of glycerol kinase (GK), to produce glycerol-3-phosphate and ADP. The resulting glycerol-3-phosphate was oxidized into dihydroxyacetone phosphate and H2O2 with oxygen in the presence of glycerol phosphate oxidase (GPO). The resulting H2O2 was reacted with 4-aminoantipyrine (4-AAP) and 4-chlorophenol in the presence of peroxidase (POD) (Trinder reaction), to yield red quinine imine, which was colorimetrically determined at a 500 nm wavelength.
The LDL in serum was precipitated using PVS. The serum TC and the Ch in the resulting supernatant were determined using the enzymatic methods described hereinabove, and the LDL-C was calculated by subtracting the Ch from the serum TC. The polyethylene glycol monoether (PEGME) was added in a suitable amount in order to facilitate the precipitation of LDL. […]

[3] = group mean n=10, 15th day after administration
[4] = in comparison with group II (high lipid mode control group)
[5] = rats No. 1-10, 0.046 mmol/kg (Simvastatin 10 mg/kg), 15th day after administration

SMILES: O=C(O)/C=C/C=C/c1ccc2c(c1)OCO2 [GB-H, piperonyl pentadienoic acid]
- Total cholesterol value ([1]; Table 18, mean ± standard deviation, n=10): 11.09 ± 1.82
- Triglyceride value ([1]; Table 19, mean ± standard deviation, n=10): 2.55 ± 0.42 mmol/L
- Low density lipoprotein cholesterol ([1]; Table 20, mean ± standard deviation, n=10): 3.34 ± 1.30 mmol/L
- High density lipoprotein cholesterol ([1]; Table 21, mean ± standard deviation, n=10): 0.67 ± 0.21 mmol/L
- serum high density lipoprotein cholesterol (HDL) contents, Mean [1, 3]: 0.67 mmol/L
- serum low density lipoprotein cholesterol (LDL) contents, Mean [1, 3]: 3.34 mmol/L
- serum total cholesterol (TC) contents, Mean [1, 3]: 11.09 mmol/L
- serum triglyceride (TG) contents, Mean [1, 3]: 2.55 mmol/L
- effect on serum high density lipoprotein cholesterol, in words [1, 4]: show the effect of some extent, of increasing high density lipoprotein cholesterol
- effect on serum low density lipoprotein cholesterol, in words [1, 4]: significant differences
- effect on serum total cholesterol, in words [1, 4]: extremely significant differences
- effect on serum triglyceride, in words [1, 4]: extremely significant differences
- serum high density lipoprotein cholesterol (HDL) contents, individual rats [1, 5]: 0.67 mmol/L and 0.85 mmol/L and 0.72 mmol/L and 0.77 mmol/L and 0.37 mmol/L and 0.46 mmol/L and 0.82 mmol/L and 0.73 mmol/L and 1.02 mmol/L and 0.35 mmol/L
- serum low density lipoprotein cholesterol (LDL) contents, individual rats [1, 5]: 2.22 mmol/L and 5.37 mmol/L (2×) and 2.03 mmol/L and 3.35 mmol/L and 3.61 mmol/L and 2.68 mmol/L and 2.09 mmol/L and 4.36 mmol/L and 2.34 mmol/L
- serum triglyceride (TG) contents, individual rats [1, 5]: 1.97 mmol/L and 2.08 mmol/L and 2.37 mmol/L and 2.61 mmol/L (2×) and 2.82 mmol/L and 2.47 mmol/L and 3.04 mmol/L and 2.23 mmol/L and 3.31 mmol/L
- serum total cholesterol (TC) contents, individual rats ([1]; rats No. 1-10, hyperlipoidemia mode, drug 14 days, 0.046 mmol/kg (Simvastatin 10 mg/kg), 15th day after administration): 12.34 mmol/L and 9.37 mmol/L and 12.03 mmol/L and 10.25 mmol/L and 10.37 mmol/L and 9.36 mmol/L (2×) and 11.28 mmol/L (2×) and 15.24 mmol/L
- Total cholesterol value ([2]; Table 6, mean ± standard deviation, n=10): 13.23 ± 3.49
- Triglyceride value ([2]; Table 7, mean ± standard deviation, n=10): 1.31 ± 0.3219 mmol/L
- Low density lipoprotein cholesterol ([2]; Table 8, mean ± standard deviation, n=10): 4.298 ± 1.0578 mmol/L
- High density lipoprotein cholesterol ([2]; Table 9, mean ± standard deviation, n=10): 0.325 ± 0.0902 mmol/L
- serum total cholesterol (TC) contents, Mean ([2]; group mean n=10, 0.046 mmol/kg (Simvastatin 10 mg/kg), 15th day after administration): 13.23 mmol/L
- serum high density lipoprotein cholesterol (HDL) contents, Mean [2, 3]: 0.32 mmol/L
- serum low density lipoprotein cholesterol (LDL) contents, Mean [2, 3]: 4.29 mmol/L
- serum triglyceride (TG) contents, Mean [2, 3]: 1.31 mmol/L
- effect on serum low density lipoprotein cholesterol, in words [2, 4]: show the effect of lowering serum low density lipoprotein cholesterol value
- effect on serum total cholesterol, in words [2, 4]: extremely significant differences
- effect on serum triglyceride, in words ([2]; in comparison with group II (high lipid mode control group), listed as GB-1-1): extremely significant differences
- serum high density lipoprotein cholesterol (HDL) contents, individual rats [2, 5]: 0.26 mmol/L (2×) and 0.48 mmol/L and 0.18 mmol/L and 0.35 mmol/L and 0.28 mmol/L and 0.42 mmol/L and 0.41 mmol/L and 0.30 mmol/L and 0.31 mmol/L
- serum low density lipoprotein cholesterol (LDL) contents, individual rats [2, 5]: 4.53 mmol/L and 5.85 mmol/L and 4.24 mmol/L and 2.74 mmol/L and 4.19 mmol/L and 2.68 mmol/L and 5.09 mmol/L and 4.86 mmol/L and 3.51 mmol/L and 5.29 mmol/L
- serum triglyceride (TG) contents, individual rats [2, 5]: 1.15 mmol/L and 1.64 mmol/L and 1.71 mmol/L and 0.91 mmol/L and 0.88 mmol/L and 1.06 mmol/L and 1.58 mmol/L and 1.23 mmol/L and 1.70 mmol/L and 1.30 mmol/L
- serum total cholesterol (TC) contents, individual rats ([2]; rats No. 1-10, high lipid feed plus drug 14 days, 0.046 mmol/kg (Simvastatin 10 mg/kg), 15th day after administration): 16.64 mmol/L and 14.72 mmol/L and 10.11 mmol/L and 13.12 mmol/L and 9.56 mmol/L and 7.83 mmol/L and 12.22 mmol/L and 14.24 mmol/L and 14.28 mmol/L and 19.58 mmol/L
